Test results: patent US8772445B2, “Production and use of antitumoral cyclodepsipeptides” (Helmholtz-Zentrum Fuer Ozeanforschung Kiel (Geomar), priority 2008, dated 2014)

What was measured:
Test in all cases: crystal violet assay, antiproliferative effect against tumor cells
Assay type in all cases: cell-based
[1] = test system: intestinal tumor cell line HT29; conditions: Homo sapiens, HT-29; HT29, at 1 μg/mL, on average
Method: (§1) 4) Determination of the Antiproliferative Effect Against Tumor Cells
(§2) The substances Scopularid A and Scopularid B have shown significant inhibitory action against tumor cell lines, in particular pancreatic tumor cell lines Colo357 and Panc89 and also intestinal tumor cell lines HT29 (on average an inhibition between 25-50% at 1 μg/mL). This activity was determined using the crystal violet assay (Siegmund, D. et al. “Death receptor-induced signalling pathways are differentially regulated by gamma interferon upstream of caspase 8 processing.” Mol. Cell. Biol. 2005; 25: 6363-6379).

[2] = test system: pancreatic tumor cell line Colo357; conditions: for inhibition at 1 µg/mL: Homo sapiens, Colo357, at 1 μg/mL, on average
Method: as §1, §2

[3] = test system: pancreatic tumor cell line Panc89; conditions: Panc89, at 1 μg/mL, on average
Method: as §1, §2

SMILES	inhibition at 1 µg/mL [1] [%]	inhibition at 1 µg/mL [2] [%]	inhibition at 1 µg/mL [3] [%]	antiproliferative effect against tumor cells (in words) ([2]; tumor cell lines, in particular Colo357)
CCCCCCC(C)C1CC(=O)NCC(=O)N[C@@H](C(C)C)C(=O)N[C@H](CC(C)C)C(=O)N[C@@H](C)C(=O)N[C@@H](Cc2ccccc2)C(=O)O1 (stereo partly shown) [Scopularid A]	25 to 50	25 to 50	25 to 50	
CCCCC(C)C1CC(=O)NCC(=O)N[C@@H](C(C)C)C(=O)N[C@H](CC(C)C)C(=O)N[C@@H](C)C(=O)N[C@@H](Cc2ccccc2)C(=O)O1 (stereo partly shown) [Scopularid B]	25 to 50	25 to 50	25 to 50	significant inhibitive effect
